Test results: US20250250232A1, “AZETIDINE DERIVATIVES AND USE THEREOF AS DIPEPTIDYL PEPTIDASE 1 INHIBITORS” (CHIESI FARMACEUTICI S.P.A., priority 2022, published 2025)

Biological target: T1, human DPP1 enzyme (Homo sapiens (Human), UniProt P53634)
Experiment: not given
Conditions: values from K Doyle, J. Med. Chem. 2016, Table 3; cited from earlier work

T1 sequence (P53634 231-394): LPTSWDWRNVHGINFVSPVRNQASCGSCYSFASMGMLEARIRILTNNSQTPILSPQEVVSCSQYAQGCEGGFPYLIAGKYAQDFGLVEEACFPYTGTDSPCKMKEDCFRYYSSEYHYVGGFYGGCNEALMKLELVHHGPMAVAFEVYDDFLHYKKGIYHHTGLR
T1 sequence (P53634 25-134): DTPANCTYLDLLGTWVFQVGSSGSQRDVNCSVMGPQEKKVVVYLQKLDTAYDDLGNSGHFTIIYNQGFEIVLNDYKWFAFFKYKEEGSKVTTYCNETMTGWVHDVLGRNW
T1 sequence (P53634 395-463): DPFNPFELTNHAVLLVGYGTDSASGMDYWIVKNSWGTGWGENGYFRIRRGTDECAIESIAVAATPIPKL

Compound	pIC50 in the human recombinant DPP1 isolated enzyme assay (state of the art)
Cn1c(=O)oc2ccc(-c3ccc(C[C@@H](C#N)NC(=O)C4(C(F)F)CNC4)cc3)cc21 [compound 14, (S)-N-(1-cyano-2-(4-(3-methyl-2-oxo-2,3-dihydrobenzo[d]oxazol-5-yl)phenyl)ethyl)-3-(difluoromethyl)azetidine-3-carboxamide]	less than 5
CN1C(=O)Cc2ccc(-c3ccc(C[C@@H](C#N)NC(=O)C4(C(F)F)CNC4)c(F)c3)cc21 [compound 16, (S)-N-(1-cyano-2-(2-fluoro-4-(1-methyl-2-oxoindolin-6-yl)phenyl)ethyl)-3-(difluoromethyl)azetidine-3-carboxamide]	5.9
N#C[C@H](Cc1ccc(-c2ccc3c(c2)C2(CCN(C4COC4)CC2)OC3)cc1F)NC(=O)C1(C(F)F)CNC1 [compound 15, (S)-N-(1-cyano-2-(2-fluoro-4-(1′-(oxetan-3-yl)-3H-spiro[isobenzofuran-1,4′-piperidin]-6-yl)phenyl)ethyl)-3-(difluoromethyl)azetidine-3-carboxamide]	less than 5

Biological target: T1, human DPP1 enzyme
Experiment: Activity on human recombinant DPP1 isolated enzyme assay (H-Gly-Arg-AMC cleavage, fluorescence)
Format: biochemical
Conditions: 0.35 nM human DPP1, 300 μM H-Gly-Arg-AMC, 30 min pre-incubation at 25° C., pH 5.0
Experimental: Human DPP1 enzyme activity was determined by measuring release of the fluorophore aminomethyl coumarin (AMC) following enzymatic cleavage of the dipeptide substrate H-Gly-Arg-AMC. Assays were performed in black 384 well plates in 25 mM piperazine buffer, pH 5.0, containing 50 mM NaCl, 0.01% (v/v) Triton X100, 5 mM DTT with 0.35 nM human DPP1 enzyme, 300 μM H-Gly-Arg-AMC substrate (˜Km concentration) and test compounds at 0.51-10000 nM concentration range. Human DPP1 was pre-incubated with test compounds for 30 minutes at 25° C. prior to substrate incubation for a further 40 minutes at 25° C. Enzyme activity was determined by measuring fluorescence of the AMC product at excitation and emission wavelengths of 380 nm and 460 nm using a BMG LABTECH PHERA star plate reader. Test compound potencies are reported in Table 15 as pIC50 values generated from 4-parameter sigmoidal curve fitting of the measured concentration-inhibition responses.

Compound	h DPP1 pIC50
CN1C(=O)Cc2ccc(-c3ccc(C[C@@H](C#N)NC(=O)C4(C(F)F)CNC4)c(F)c3)cc21 [Example 16, (S)-N-(1-cyano-2-(2-fluoro-4-(1-methyl-2-oxoindolin-6-yl)phenyl)ethyl)-3-(difluoromethyl)azetidine-3-carboxamide]	++++ (h DPP1 pIC50 higher than 8)
COC1(C(=O)N[C@H](C#N)Cc2ccc(-c3ccc4c(c3)N(C)C(=O)C4)cc2F)CN(C)C1 [Example 50, (S)-N-(1-cyano-2-(2-fluoro-4-(1-methyl-2-oxoindolin-6-yl)phenyl)ethyl)-3-methoxy-1-methylazetidine-3-carboxamide]	++++ (h DPP1 pIC50 higher than 8)
COC1(C(=O)N[C@H](C#N)Cc2ccc(-c3ccc(C#N)cc3)cc2)CN(C)C1 [Example 24, (S)-N-(1-cyano-2-(4′-cyano-[1,1′-biphenyl]-4-yl)ethyl)-3-methoxy-1-methylazetidine-3-carboxamide]	++++ (h DPP1 pIC50 higher than 8)
COC1(C(=O)N[C@H](C#N)Cc2ccc(-c3ccc(C#N)cc3)cc2F)CN(C)C1 [Example 41, (S)-N-(1-cyano-2-(4′-cyano-3-fluoro-[1,1′-biphenyl]-4-yl)ethyl)-3-methoxy-1-methylazetidine-3-carboxamide]	++++ (h DPP1 pIC50 higher than 8)

Same assay, conditions: 0.35 nM human DPP1, 300 μM H-Gly-Arg-AMC, 30 min pre-incubation at 25° C., pH 5.0; read-out: h DPP1 pIC50 (converted)

Compound	IC50 [nM]
COC1(C(=O)N[C@H](C#N)Cc2ccc(-c3ccc(C#N)cc3)cc2)CNC1C (stereo partly drawn) [Example 31, N-((S)-1-cyano-2-(4′-cyano-[1,1′-biphenyl]-4-yl)ethyl)-3-methoxy-2-methylazetidine-3-carboxamide]	100 to 1000
COC1(C(=O)NC(C#N)Cc2ncc(-c3ccc(C#N)cc3)cc2F)CN(C)C1 (single isomer, unassigned; enantiomer 1) [Example 44, enantiomer 1 of N-(1-cyano-2-(5-(4-cyanophenyl)-3-fluoropyridin-2-yl)ethyl)-3-methoxy-1-methylazetidine-3-carboxamide]	10 to 100
N#Cc1ccc(-c2ccc(C[C@@H](C#N)NC(=O)C3(O)CNC3)cc2)cc1 [Example 1, (S)-N-(1-cyano-2-(4′-cyano-[1,1′-biphenyl]-4-yl)ethyl)-3-hydroxyazetidine-3-carboxamide]	100 to 1000
CN1CC(C(=O)N[C@H](C#N)Cc2ccc(-c3ccc4c(c3)C3(CCN(C5COC5)CC3)OC4)cc2F)(C(F)F)C1 [Example 39, (S)-N-(1-cyano-2-(2-fluoro-4-(1′-(oxetan-3-yl)-3H-spiro[isobenzofuran-1,4′-piperidin]-6-yl)phenyl)ethyl)-3-(difluoromethyl)-1-methylazetidine-3-carboxamide]	10 to 100
CCOC1(C(=O)N[C@H](C#N)Cc2ccc(-c3ccc(C#N)cc3)cc2)CNC1 [Example 11, (S)-N-(1-cyano-2-(4′-cyano-[1,1′-biphenyl]-4-yl)ethyl)-3-ethoxyazetidine-3-carboxamide]	10 to 100
N#Cc1ccc(-c2ccc(C[C@@H](C#N)NC(=O)C3(C(F)(F)F)CNC3)cc2)cc1 [Example 17, (S)-N-(1-cyano-2-(4′-cyano-[1,1′-biphenyl]-4-yl)ethyl)-3-(trifluoromethyl)azetidine-3-carboxamide]	10 to 100
CN1CC(C(=O)N[C@H](C#N)Cc2ccc(-c3ccc(C#N)cc3)cc2F)(C(F)F)C1 [Example 40, (S)-N-(1-cyano-2-(4′-cyano-3-fluoro-[1,1′-biphenyl]-4-yl)ethyl)-3-(difluoromethyl)-1-methylazetidine-3-carboxamide]	10 to 100
Cn1c(=O)oc2ccc(-c3ccc(C[C@@H](C#N)NC(=O)C4(C(F)F)CNC4)cc3)cc21 [Example 14, (S)-N-(1-cyano-2-(4-(3-methyl-2-oxo-2,3-dihydrobenzo[d]oxazol-5-yl)phenyl)ethyl)-3-(difluoromethyl)azetidine-3-carboxamide]	10 to 100
COC1(C(=O)N[C@H](C#N)Cc2ccc(-c3ccc(C#N)cc3)cc2)CN(CC(C)C)C1 [Example 51, (S)-N-(1-cyano-2-(4′-cyano-[1,1′-biphenyl]-4-yl)ethyl)-1-isobutyl-3-methoxyazetidine-3-carboxamide]	1000 to 10000
